Data reported in article PMC9469097 (Frontiers in Pharmacology, 2022).
Like-named read-outs stand apart in the source and are kept apart here.

Assays:
[1] = target: CYP3A (Homo sapiens, UniProt P08684); assay: CYP3A-catalyzed midazolam 1′-hydroxylation in HLMs; type: biochemical; details: for IC50 at 30 min: human
Description: Following incubation for 30 min at 37 °C, and 200 μl ice-cold acetonitrile containing internal standard (IS, 90 ng/ml) was subsequently added to quench the oxidative reaction. The mixture was then centrifuged at 20,000 ×g, 4 °C for 20 min, and the supernatant was quantified by LC-MS/MS analysis as described in Supplementary Table S2.

[2] = Tissue distribution of PTAs of Styrax in rats; details: for exposure in rat plasma and rat liver: after single oral dose of Styrax (100 mg/kg)
Description: Nine Male Sprague-Dawley rats (250–300 g) were purchased from Shanghai Sippe-Bk Lab Animal Co., Ltd. (Shanghai, China) and were fed in Experimental Animal Center of SHUTCM. […] The rats were fasted overnight before dosing but were free to drink water. Nine rats were randomly divided into three groups (1, 2, and 4 h). […] Blood samples were collected from the abdominal aorta, and the tissues (including the liver, duodenum, jejunum, ileum and colon) were removed rapidly and placed on ice. After then, the blood samples were centrifuged at 8,000 rpm, 4 °C for 10 min, and the supernatant was stored at −80 °C until analysis.
Firstly, each tissue (such as liver, duodenum, jejunum, ileum, colon) was accurately weighed after sucking the water on tissue surface. Each tissue was put into an EP tube and then cut (3-5 times) by a scissor. After then, PBS (pH 7.4) and magnetic beads were added into EP tube, grind the tissue by a tissue grinder. The tissue grinding fluid was centrifuged at 9,000 g, 4 °C for 20 min. 50 μl tissue supernatant was diluted by adding 250 μl LC grade acetonitrile. The protein was precipitated by centrifuging at 20,000 ×g, 4 °C for 30 min and the supernatant was collected to determine the protein concentration by a BCA Protein Quantification Kit. After then, the concentrations of seven PTAs were determined by using UHPLC-Q-Orbitrap HRMS analysis.

[3] = Stability tests for target pentacyclic triterpenoid acids
[4] = target: CYP3A4 (Homo sapiens, UniProt P08684); assay: CYP3A4-catalyzed NEN 4-hydroxylation in HLMs (fluorescence-based assay)
CYP3A4, sequence (P08684 whole entry): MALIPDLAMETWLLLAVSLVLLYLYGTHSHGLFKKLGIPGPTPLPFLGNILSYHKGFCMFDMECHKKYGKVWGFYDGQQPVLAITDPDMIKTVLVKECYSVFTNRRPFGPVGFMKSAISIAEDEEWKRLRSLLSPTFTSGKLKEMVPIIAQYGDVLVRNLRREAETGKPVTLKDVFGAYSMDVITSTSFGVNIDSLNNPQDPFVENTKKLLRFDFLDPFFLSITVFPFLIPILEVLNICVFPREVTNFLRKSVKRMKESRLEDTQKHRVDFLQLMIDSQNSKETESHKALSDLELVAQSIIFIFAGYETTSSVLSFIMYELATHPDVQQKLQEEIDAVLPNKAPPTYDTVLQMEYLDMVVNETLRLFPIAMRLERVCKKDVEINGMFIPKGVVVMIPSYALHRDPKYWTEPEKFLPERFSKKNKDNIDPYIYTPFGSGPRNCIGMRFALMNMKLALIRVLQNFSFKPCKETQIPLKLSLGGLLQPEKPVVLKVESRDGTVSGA
Description: In brief, PBS (pH 7.4, 100 mM), herbal medicines (100 μg/ml, final concentration)/PTAs/solvent, NEN, G-6-P, G-6-PDH, MgCl2, and HLMs were added to the 96-well plate in turn, then the samples were vortexed and pre-incubated for 3 min at 37 °C. The oxidative reactions were initiated by adding β-NADP^+ to yield a final volume of 200 μl, then the formation rates of NEHN (hydroxylated metabolite of NEN) were continuously monitored for 30 min at 37 °C using a 96-well fluorescence microplate reader (SpectraMax® iD3, Molecular Devices, Austria). The percentage of organic solvent in all incubation is not over 1%.

[5] = Pharmacokinetic interaction between Styrax and midazolam (i.v. and i.g.) in rats; details: for AUC(0-inf) / Cmax / half-life: male, Sprague-Dawley, rat, plasma; for half-life: t1/2, rats
[6] = iv, 5 mg/kg, rats, midazolam i.v. 5 mg/kg, pretreated with Soybean oil
[7] = iv, 5 mg/kg, rats, midazolam i.v. 5 mg/kg, pretreated with Styrax i.g. 100 mg/kg
[8] = po, 20 mg/kg, rats, midazolam i.g. 20 mg/kg, pretreated with Soybean oil
[9] = po, 20 mg/kg, rats, midazolam i.g. 20 mg/kg, pretreated with Styrax i.g. 100 mg/kg
[10] = rats, midazolam i.g. 20 mg/kg, Styrax + midazolam vs Soybean oil + midazolam (fold)
[11] = rats, midazolam i.v. 5 mg/kg, Styrax + midazolam vs Soybean oil + midazolam

CYP3A, sequence (P08684 2-503): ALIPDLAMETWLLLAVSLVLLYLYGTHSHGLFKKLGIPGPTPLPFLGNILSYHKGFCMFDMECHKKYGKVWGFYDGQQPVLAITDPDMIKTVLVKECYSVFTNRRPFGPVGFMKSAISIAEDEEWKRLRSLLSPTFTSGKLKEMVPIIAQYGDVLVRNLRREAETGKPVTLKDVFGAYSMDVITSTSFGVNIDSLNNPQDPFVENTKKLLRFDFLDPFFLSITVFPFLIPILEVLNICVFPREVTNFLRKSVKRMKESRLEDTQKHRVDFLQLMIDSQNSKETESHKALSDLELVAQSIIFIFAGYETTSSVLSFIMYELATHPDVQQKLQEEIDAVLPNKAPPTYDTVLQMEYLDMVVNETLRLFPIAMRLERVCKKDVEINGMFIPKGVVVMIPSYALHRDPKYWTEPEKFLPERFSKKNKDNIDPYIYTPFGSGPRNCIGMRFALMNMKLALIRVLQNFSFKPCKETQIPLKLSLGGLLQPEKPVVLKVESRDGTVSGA

SMILES	IC50 at 30 min ([1]; microsomes, pH 7.4) [µM]	exposure in rat plasma and rat liver [2]	Stability, 4 ℃ Refrigerator (3 day, %) ([3]; nominal level 3.28 nmol/L) [%]	Stability, -20℃ freeze-thaw (3 times, %) ([3]; nominal level 3.28 nmol/L) [%]	Stability, Room temperature (24 h, %) ([3]; nominal level 3.28 nmol/L) [%]	Stability, 4 ℃ Refrigerator (3 day, %) ([3]; nominal level 20.48 nmol/L) [%]	Stability, -20℃ freeze-thaw (3 times, %) ([3]; nominal level 20.48 nmol/L) [%]	Stability, Room temperature (24 h, %) ([3]; nominal level 20.48 nmol/L) [%]	Stability, 4 ℃ Refrigerator (3 day, %) ([3]; nominal level 128.00 nmol/L) [%]	Stability, -20℃ freeze-thaw (3 times, %) ([3]; nominal level 128.00 nmol/L) [%]	Stability, Room temperature (24 h, %) ([3]; nominal level 128.00 nmol/L) [%]	IC50 [4] [µM]	other results
C=C(C)[C@@H]1CC[C@]2(C(=O)O)CC[C@]3(C)[C@H](CC[C@@H]4[C@@]5(C)CC[C@H](O)C(C)(C)[C@@H]5CC[C@]43C)[C@@H]12 [betulinic acid]	7.74 ± 0.95	could not be detected	100.20	104.81	98.14	102.78	99.04	102.89	102.12	110.33	103.89	4.11 ± 0.8	
Cc1ncc2n1-c1ccc(Cl)cc1C(c1ccccc1F)=NC2 [midazolam]													AUC(0-inf) [5, 6]: 1320 ± 130 ng·h/mL; AUC(0-inf) [5, 7]: 1200 ± 114 ng·h/mL; Cmax [5, 6]: 3260 ± 708 ng/mL; Cmax [5, 7]: 3370 ± 570 ng/mL; half-life ([5]; iv, 5 mg/kg, midazolam i.v. 5 mg/kg, pretreated with Styrax i.g. 100 mg/kg): 0.52 ± 0.14 h; AUC(0-inf) [5, 8]: 211 ± 87.2 ng·h/mL; AUC(0-inf) [5, 9]: 431 ± 217 ng·h/mL; Cmax [5, 8]: 129 ± 111 ng/mL; Cmax [5, 9]: 294 ± 277 ng/mL; half-life ([5]; po, 20 mg/kg, midazolam i.g. 20 mg/kg, pretreated with Soybean oil): 2.14 ± 0.28 h; half-life ([5]; po, 20 mg/kg, midazolam i.g. 20 mg/kg, pretreated with Styrax i.g. 100 mg/kg): 4.52 ± 3.96 h; Tmax Ratio ([5]; rats, midazolam i.g. 20 mg/kg, Styrax + midazolam vs Soybean oil + midazolam): 1.00; AUC(0-inf) Ratio [5, 10]: 2.04; Cmax Ratio [5, 10]: 2.28; t1/2 Ratio [5, 10]: 2.11; AUC(0-inf) Ratio [5, 11]: 0.91; Cmax Ratio [5, 11]: 1.03; Tmax Ratio [5, 11]: 1.00; t1/2 Ratio [5, 11]: 0.59; t1/2 ([5]; rats, midazolam i.v. 5 mg/kg, pretreated with Soybean oil): 0.88 ± 0.28 h
C=C(C)[C@@H]1CC[C@]2(C(=O)O)CC[C@]3(C)[C@H](CC[C@@H]4[C@@]5(C)CCC(=O)C(C)(C)[C@@H]5CC[C@]43C)[C@@H]12 [betulonic acid]													IC50 ([1]; midazolam 1′-hydroxylation, HLMs): 2.51 ± 0.34 µM; IC50 ([4]; NEN 4-hydroxylation, HLMs): 0.96 ± 0.14 µM
C=C(C)[C@@H]1CC[C@]2(C(=O)O)CC[C@]3(C)[C@H](CC[C@@H]4[C@@]5(C)CC[C@@H](O)C(C)(C)[C@@H]5CC[C@]43C)[C@@H]12 [epibetulinic acid]	0.64 ± 0.1	very low exposure levels	113.34	109.83	104.88	105.44	106.94	96.59	107.19	110.52	106.30	0.47 ± 0.08	
CC1(C)CC[C@]2(C(=O)O)CC[C@]3(C)C(=CC[C@@H]4[C@@]5(C)CC[C@H](O)C(C)(C)[C@@H]5CC[C@]43C)[C@@H]2C1 [oleanolic acid]	14.8 ± 2.34	very low exposure levels	105.69	103.79	103.28	102.19	105.51	99.64	104.96	105.16	99.00		
CC1(C)CC[C@]2(C(=O)O)CC[C@]3(C)C(=CC[C@@H]4[C@@]5(C)CCC(=O)C(C)(C)[C@@H]5CC[C@]43C)[C@@H]2C1 [oleanonic acid]	0.99 ± 0.09	very low exposure levels	85.84	91.69	86.92	103.95	109.44	101.86	100.64	113.69	98.85	0.8 ± 0.06	local exposure to rat jejunum ([2]; 1 h after single oral dose of Styrax (100 mg/kg)): 745.69 nM/mg tissue protein
CC1(C)CC[C@]2(C(=O)O)CC[C@]3(C)C(=CC[C@@H]4[C@@]5(C)C[C@@H](O)[C@H](O)C(C)(C)[C@@H]5CC[C@]43C)[C@@H]2C1 [maslinic acid]	19.4 ± 3.04	could not be detected										3.44 ± 0.77	Stability, 4 ℃ Refrigerator (3 day, %) ([3]; nominal level 8.19 nmol/L): 101.20%; Stability, -20℃ freeze-thaw (3 times, %) ([3]; nominal level 8.19 nmol/L): 100.54%; Stability, Room temperature (24 h, %) ([3]; nominal level 8.19 nmol/L): 95.84%; Stability, 4 ℃ Refrigerator (3 day, %) ([3]; nominal level 51.20 nmol/L): 103.76%; Stability, -20℃ freeze-thaw (3 times, %) ([3]; nominal level 51.20 nmol/L): 100.05%; Stability, Room temperature (24 h, %) ([3]; nominal level 51.20 nmol/L): 99.51%; Stability, 4 ℃ Refrigerator (3 day, %) ([3]; nominal level 320.00 nmol/L): 97.98%; Stability, -20℃ freeze-thaw (3 times, %) ([3]; nominal level 320.00 nmol/L): 98.47%; Stability, Room temperature (24 h, %) ([3]; nominal level 320.00 nmol/L): 96.85%
C[C@H]1[C@H](C)CC[C@]2(C(=O)O)CC[C@]3(C)C(=CC[C@@H]4[C@@]5(C)C[C@@H](O)[C@H](O)C(C)(C)[C@@H]5CC[C@]43C)[C@H]12 [corosolic acid]												41.9 ± 11.7	IC50 at 30 min ([1]; human liver microsomes, pH 7.4, probe midazolam (1′-hydroxylation), midazolam 1′-hydroxylation, HLMs, read-out: IC50): 32.2 ± 5.63 µM; Stability, 4 ℃ Refrigerator (3 day, %) ([3]; nominal level 8.19 nmol/L): 105.13%; Stability, -20℃ freeze-thaw (3 times, %) ([3]; nominal level 8.19 nmol/L): 104.46%; Stability, Room temperature (24 h, %) ([3]; nominal level 8.19 nmol/L): 99.78%; Stability, 4 ℃ Refrigerator (3 day, %) ([3]; nominal level 51.20 nmol/L): 104.14%; Stability, -20℃ freeze-thaw (3 times, %) ([3]; nominal level 51.20 nmol/L): 100.45%; Stability, Room temperature (24 h, %) ([3]; nominal level 51.20 nmol/L): 99.91%; Stability, 4 ℃ Refrigerator (3 day, %) ([3]; nominal level 320.00 nmol/L): 97.82%; Stability, -20℃ freeze-thaw (3 times, %) ([3]; nominal level 320.00 nmol/L): 98.31%; Stability, Room temperature (24 h, %) ([3]; nominal level 320.00 nmol/L): 96.69%
